Reference: BindingDB's records for doi:10.7270/Q21V5CG8 (Burnham Center For Chemical Genomics, 2011)
pIC50: −log10 of the molar value.

These molecules were tested against T1, Cysteine protease ATG4B (Homo sapiens, UniProt Q9Y4P1) (assay: autophagin-1 cysteine protease inhibition – biochemical, fluorescence, set 2, dose response (AID 588584)).
T1 sequence (Q9Y4P1 whole entry): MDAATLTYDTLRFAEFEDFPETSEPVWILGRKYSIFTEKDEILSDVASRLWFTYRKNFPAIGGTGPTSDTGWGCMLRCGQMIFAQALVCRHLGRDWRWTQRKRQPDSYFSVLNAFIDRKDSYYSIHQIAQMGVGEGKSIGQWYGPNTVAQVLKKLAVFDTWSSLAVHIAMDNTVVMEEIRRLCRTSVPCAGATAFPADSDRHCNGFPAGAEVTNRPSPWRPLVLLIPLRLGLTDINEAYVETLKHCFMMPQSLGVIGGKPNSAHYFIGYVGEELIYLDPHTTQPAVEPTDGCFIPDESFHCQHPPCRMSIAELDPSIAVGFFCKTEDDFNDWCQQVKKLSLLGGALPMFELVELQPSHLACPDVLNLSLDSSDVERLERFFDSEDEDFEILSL
A pIC50 of 5.27 was found for `Oc1ccc2ccccc2c1CN=Nc1nnc(-c2ncc[nH]2)c2ccccc12` [SMR000151639] in this work.
A pIC50 of 4.64 was found for `CC1=CC(/C=N/n2c(COc3ccccc3)nc3ccccc3c2=O)C(=O)C([N+](=O)[O-])=C1` (stereo not drawn) [3-[[(E)-(3-methyl-5-nitro-6-oxocyclohexa-2,4-dien-1-ylidene)methyl]amino]-2-(phenoxymethyl)quinazolin-4-one] in this work.
A pIC50 of 4.51 was found for `Cc1ccc(NC2=NC(=O)C(=Cc3c(C)[nH]c4ccccc34)S2)cc1` [5-[(2-methyl-1H-indol-3-yl)methylene]-2-[(4-methylphenyl)imino]-1,3-thiazolidin-4-one] in this work.
